Assay results reported in publication PMC4352194, “Physicochemical and Biological Properties of Oxovanadium(IV), Cobalt(II) and Nickel(II) Complexes with Oxydiacetate Anions” (Biological Trace Element Research, 2014).

Columns and labels:
[1] = Potentiometric titration: stability constants of the complexes; type: physicochemical
Procedure: Potentiometric titrations were performed in a 30-mL thermostated (298.15 ± 0.10 K) cell using the Cerko Lab System microtitration unit fitted with a 5-mL Hamilton’s syringe, a pH combined electrode (Schott–BlueLine 16 pH type) and a self-made measuring cell equipped with a magnetic stirrer. The temperature was controlled using the Lauda E100 circulation thermostat. In aqueous solutions, the electrode was calibrated according to IUPAC recommendations. In binary systems (10–50 % v/v DMSO:H2O), the electrode calibration was performed by the Gran’s method using the GLEE program. For this purpose, the HClO4 solution was titrated with tetrabutylammonium hydroxide (Bu4NOH) solution both at the same mole fraction of organic solvent (10–50 (v/v%) DMSO). The syringe was calibrated by a weight method. The double distilled water of conductivity approximately 0.18 μS/cm was used throughout for the preparation of aqueous solutions. Other reagents used in the experiments were purchased from Sigma-Aldrich. They were as follows: VOSO4 (≥99.99 % trace metals basis), Co(NO3)2·6H2O (ACS reagent, ≥99 %), Ni(NO3)2·6H2O (99.999 %) and 2,2′-oxydiacetic acid (H2ODA, 98 %). All the solutions were prepared immediately before measurements. The compositions of the titrand solutions used in the experiments were as follows: (a) 2 mM Ni^2+ (Co^2+ or VO^2+), 5 mM H2ODA, 5 mM HClO4, (b) 2.5 mM H2ODA (for binary systems). The solutions (Vo = 5.0 mL) were potentiometrically titrated with the standardized 0.098 M NaOH solution or with the standardized 0.025 M Bu4NOH solution (in binary systems) in the pH range from 2.5 to 11.0. The titrant was added to the titrand in increments of 0.01 mL, with a pause of 60 s. Each titration was repeated at least three times in order to check the reproducibility of the data. The stability constants of the complexes were determined using the Hyperquad2008 program. The concentration distribution of various complex species existing in the solution as a function of pH was obtained using the HySS program.
The equilibrium constants defined by Eqs. (1) and (2):1 pM+qL+rH=MpLqHr 2 βpqr=MpLqHr/M^pL^qH^r (where M is VO^2+, Co^2+ or Ni^2+, L denotes the oxydiacetate ion, H is the proton and p, q, r are stoichiometric coefficients for the reaction) were refined by least-squares calculations using the Hyperquad2008 (version 5.2.19) computer program. For the oxovanadium(IV) system, the formation of the hydroxo complexes of VO(IV) were taken into account in the calculations of the stability constants. The following formation constants were taken from the literature and were fixed: logβ 10–1 = −5.94, logβ 20–2 = −6.95 and logβ 10–3 = −18. The equilibrium models presented in Table 2 have given the best fitting of the calculated data to the experimental ones.

Enterococcus faecalis [2] = assay: Broth dilution test (MIC, MBC); type: cell-based; settings: E. faecalis; for MIC: broth dilution 1–2048 μg/mL
Procedure: (§1) The antimicrobial activity of complex compounds was assessed against Bacillus subtilis, Escherichia coli, Enterococcus faecalis, Pseudomonas aeruginosa, Staphylococcus aureus, Staphylococcus epidermidis (all strains were from the collection of the Department of Molecular Biology, University of Gdańsk). All bacteria were cultured in the Luria-Bertani (LB) broth at 310.15 K in the air with shaking. LB agar plates were prepared by the supplementation of LB broth with the 1.5 % bacteriological agar. Stock solutions of complex compounds were freshly prepared in the LB broth at the concentration of 25 mg/mL. The antimicrobial activity was assessed with the broth dilution method. The LB broth supplemented with the twofold diluted amount of tested compounds (dilution range 1–2048 μg/mL) was inoculated with 10^6 cfu of bacteria cells per well of 96-well plate. Cultures were incubated at 310.15 K with shaking for 18–20 h in the air, and the bacterial growth was estimated by measuring the optical density at 600 nm with the LB broth as a background control. A minimum inhibitory concentration (MIC) was defined as the lowest concentration of the tested compound (in μg/mL) at which there was no visible growth of bacteria compared to the growth observed for the inoculated LB broth without any supplementation. […] The concentration (in μg/mL) at which no colonies were observed was defined as MBC.

Staphylococcus aureus [3] = assay: Broth dilution test (MIC, MBC); type: cell-based; settings: S. aureus; for MIC: broth dilution 1–2048 μg/mL
Procedure: as §1

Pseudomonas aeruginosa = assay: Broth dilution test (MIC, MBC); type: cell-based; settings: P. aeruginosa, broth dilution 1–2048 μg/mL
Procedure: as §1

Escherichia coli = assay: Broth dilution test (MIC, MBC); type: cell-based; settings: E. coli; for MIC: broth dilution 1–2048 μg/mL
Procedure: as §1

Bacillus subtilis = assay: Broth dilution test (MIC, MBC); type: cell-based; settings: B. subtilis, broth dilution 1–2048 μg/mL
Procedure: as §1

[4] = test system: Staphylococcus epidermidis; assay: Broth dilution test (MIC, MBC); type: cell-based; settings: S. epidermidis; for MIC: broth dilution 1–2048 μg/mL
Procedure: as §1

Enterococcus faecalis [5] = assay: Disc diffusion test; type: cell-based; settings: E. faecalis
Procedure: (§2) The antimicrobial activity of complex compounds was assessed against Bacillus subtilis, Escherichia coli, Enterococcus faecalis, Pseudomonas aeruginosa, Staphylococcus aureus, Staphylococcus epidermidis (all strains were from the collection of the Department of Molecular Biology, University of Gdańsk). All bacteria were cultured in the Luria-Bertani (LB) broth at 310.15 K in the air with shaking. LB agar plates were prepared by the supplementation of LB broth with the 1.5 % bacteriological agar. Stock solutions of complex compounds were freshly prepared in the LB broth at the concentration of 25 mg/mL. Aliquots of 0.05 mL of bacterial culture at the optical density at 600 nm of 0.1 (inoculum 5 × 10^6 cells per plate) were spread on LB agar plates. Sterile filter paper discs (of 6 mm diameter) were impregnated with solutions of complex compounds prepared in the deionized water at the following amounts: 0.1, 0.2, 0.5 and 1.0 mg per disc and placed on agar plates. After an overnight incubation at 310.15 K, zones of bacterial growth inhibition were measured. Neomycin at the amount of 0.1 mg/disc was used as a control.

Staphylococcus aureus [6] = assay: Disc diffusion test; type: cell-based; settings: S. aureus
Procedure: as §2

[7] = test system: Staphylococcus epidermidis; assay: Disc diffusion test; type: cell-based; settings: S. epidermidis
Procedure: as §2

[8] = PT, 298.15 K, aqueous, hydroxo species

Structure (SMILES) | logβ 110 (species ML), stability constant ([1]; PT, 298.15 K, aqueous) | logβ 11–2 (species MLH−2) [1, 8] | MIC (Enterococcus faecalis [2]) [µg/mL] | MBC (Staphylococcus aureus [3]) [µg/mL] | bacteriostatic or bactericidal activity (Staphylococcus aureus [3]) | MIC (Staphylococcus aureus [3]) [µg/mL] | MIC (Pseudomonas aeruginosa) [µg/mL] | MIC (Escherichia coli) [µg/mL] | MIC (Bacillus subtilis) [µg/mL] | MBC [4] [µg/mL] | bacteriostatic or bactericidal activity [4] | MIC [4] [µg/mL] | Zone of growth inhibition (Enterococcus faecalis [5]; 500 μg/disc) [mm] | Zone of growth inhibition (Enterococcus faecalis [5]; 1000 μg/disc) [mm] | Zone of growth inhibition (Staphylococcus aureus [6]; 500 μg/disc) [mm] | Zone of growth inhibition (Staphylococcus aureus [6]; 1000 μg/disc) [mm] | Zone of growth inhibition ([7]; 1000 μg/disc) [mm] | also measured
O.O.O.O=C(O)COCC(=O)O.[Co] [Co(ODA), [Co(ODA)(H2O)2]·H2O] | 3.45 (±0.11) | −14.88 (±0.14) | 256 | 512 | bactericidal activity | 256 | 256 | 512 | 256 | 2048 | bactericidal activity | 256 | 10 | 15 | 12 | 17 | 23 | MBC (Escherichia coli): 1024 µg/mL; bacteriostatic or bactericidal activity (Escherichia coli): bactericidal activity; Zone of growth inhibition (Staphylococcus aureus [6]; 100 μg/disc): 7 mm; Zone of growth inhibition ([7]; 100 μg/disc): 8 mm; Zone of growth inhibition ([7]; 500 μg/disc): 19 mm
O.O.O.O.O.O.O.O.O.O=C([O-])COCC(=O)[O-].O=C([O-])COCC(=O)[O-].[Ni+2].[Ni+2] [Ni(ODA), [Ni(ODA)(H2O)3]·1.5H2O] | 3.52 (±0.02) | −14.17 (±0.06) | 1024 | – | – | 1024 | 1024 | 1024 | 512 | 2048 | bactericidal activity | 512 | – | – | 7 | 8 | – | –
O.O.O=C([O-])COCC(=O)[O-].[O]=[V+2] [VO(ODA), [VO(ODA)(H2O)2]] | 5.08 (±0.04) | −6.45 (±0.04) | 1024 | 2048 | bactericidal activity | 1024 | 1024 | 2048 | 2048 | 2048 | bactericidal activity | 2048 | 9 | 13 | – | – | 12 | logβ 22–2 (species M2L2H−2) [1, 8]: 1.65 (±0.15); pH at which hydroxo species predominate over the complex ([1]; species distribution M:L = 1:1 calculated from stability constants): > 5.5; MBC (Enterococcus faecalis [2]): 1024 µg/mL; bacteriostatic or bactericidal activity (Enterococcus faecalis [2]): bactericidal activity
